In patent US8299115B2, “Pyrrole-2-carboxamide derivatives as glucokinase activators, their process and pharmaceutical application” (priority 2007, dated 2012):

Legend:
[1] = cited from earlier work
[2] = target: T1, human recombinant glucokinase (Homo sapiens, UniProt P35557); assay: Glucokinase activation, coupled enzymatic assay (G6PD/NADH) at 5 mM glucose; assay type: biochemical; conditions: read-out: EC50 for GK activation at 5 mM glucose
T1 sequence (P35557 1-465): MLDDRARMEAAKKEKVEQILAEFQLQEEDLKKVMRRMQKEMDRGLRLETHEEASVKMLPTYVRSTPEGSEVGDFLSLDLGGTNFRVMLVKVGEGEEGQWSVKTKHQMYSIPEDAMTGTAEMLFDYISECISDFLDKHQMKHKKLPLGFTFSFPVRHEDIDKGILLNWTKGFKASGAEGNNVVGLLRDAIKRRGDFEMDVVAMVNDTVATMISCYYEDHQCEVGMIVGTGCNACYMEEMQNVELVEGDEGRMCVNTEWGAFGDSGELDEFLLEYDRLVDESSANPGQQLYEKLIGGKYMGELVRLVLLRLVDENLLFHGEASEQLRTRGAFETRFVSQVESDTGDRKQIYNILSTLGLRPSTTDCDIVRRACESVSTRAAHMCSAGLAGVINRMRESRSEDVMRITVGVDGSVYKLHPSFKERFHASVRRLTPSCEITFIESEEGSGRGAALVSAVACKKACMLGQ
Excerpt: (§1) Glucokinase (GK) activity, in vitro, has been measured using a coupled enzymatic assay (Ref: Hariharan et al (1997) Diabetes 46: 11-16). GK catalyzes the first step, the conversion of glucose to glucose-6-phosphate (G6P) in the presence of ATP. G6P in turn is converted by glucose-6-phosphate dehydrogenase (G6PD) to 6-phosphogluconate, a process that requires NAD, resulting in NADH formation. Since the GK-catalyzed step is the rate-limiting step of this coupled enzymatic process, the rate of accumulation of 6-phosphogluconate and NADH is directly proportional to the rate of glucose phosphorylation by GK. The rate of the GK-catalyzed reaction can therefore be measured by monitoring the increase in NADH absorbance at 340 nm.
(§2) The assay is carried out according to the protocol outlined in Hariharan et al (1997), Diabetes 46: 11-16. Briefly, the test compounds are incubated in a reaction mix containing 25 mM HEPES (pH 7.2), 10 mM MgCl2, 100 mM KCl, 5 mM ATP, 2 mM DTT, 0.5 mM NAD, 1 U/ml Leuconostoc mesenteroides G6PD, 0.3 U/ml of purified human recombinant GK, and different concentrations of glucose. Enzymatic activity is calculated from the initial reaction velocity, measured from the change in NADH absorbance as a function of time.
Compounds described in formula (I), in concentration ranges from 1.0 nM to 500 μM, are tested in the purified human recombinant glucokinase assay described above.
A compound is considered to be a glucokinase activator if it, in its testable range of concentrations, yields a higher rate of glucose phosphorylation than in its absence at a particular glucose concentration, for example at 5 mM glucose.

[3] = target: T1, human recombinant glucokinase; assay: Characterization of partial glucokinase activators: dose-dependent effect on S0.5 of glucokinase for glucose (% ΔS0.5); assay type: biochemical; conditions: for Emax: % change of S0.5 at saturating compound concentration, read-out: % Emax (with respect to % ΔS0.5); for EC50: sigmoidal fit of % ΔS0.5 vs log compound concentration, read-out: EC50 (with respect to % ΔS0.5)
Excerpt: as §1, §2
Compounds of interest from the general formula (I) are tested in the in vitro GK enzymatic assay to monitor dose-dependent effect on glucokinase activation (in kinetic mode), as described above, at various glucose concentrations. The maximum efficacy (Emax) and potency (EC50) for the assessment of partial glucokinase activation have been defined in our co-pending application 409/CHE/2007. The same definitions have also been used here. The S0.5 of glucokinase for glucose at different concentration of each compound of interest is calculated from the following modified version of the Michaelis-Menten equation, V=Vmax[S]^n/(S0.5^n+[S]^n), where [S] is the glucose concentration and n is the Hill coefficient (taken as 1.7 to account for the sigmoidal kinetics of glucokinase with respect to glucose). The S0.5 is plotted against the log of the compound concentration. The change in the S0.5 of glucokinase (ΔS0.5) for glucose is calculated by subtracting the S0.5 at each concentration of the compound from the S0.5 in the vehicle control. The ΔS0.5 is then normalized to a percent scale, where the S0.5 in the vehicle control is set to 0% and 0 mM glucose is set to 100%. The % ΔS0.5 is then plotted against the log of the compound concentration. The EC50 of % change in S0.5 is obtained from the sigmoidal fit of the data.

| Molecule | EC50 [2] | Emax [3] | EC50 [3] | further results |
| --- | --- | --- | --- | --- |
| O=C(Nc1ncc(F)s1)[C@H](CC1CCOCC1)c1ccc(S(=O)(=O)C2CC2)cc1 [PSN-GK1] | – | – | – | hypoglycemic potential ([1]; at higher dose, Fyfe 2007): hypoglycemic potential |
| CC(C)C(O)c1cc(C(=O)Nc2ncc(F)s2)n(Cc2ccc(S(C)(=O)=O)cc2)c1 (stereo not shown) [Example C8, 4-(1-Hydroxy-2-methyl-propyl)-1-(4-methanesulfonyl-benzyl)-1H-pyrrole-2-carboxylic acid (5-fluoro-thiazol-2-yl)-amide] | 430 nM | – | – | – |
| CS(=O)(=O)c1ccc(Cc2cc(C(=O)Nc3nc(CC(=O)O)c(Cl)s3)n(Cc3ccc(F)c(F)c3)c2)cc1 [Example E23, (5-Chloro-2-{[1-(3,4-difluoro-benzyl)-4-(4-methanesulfonyl-benzyl)-1H-pyrrole-2-carbonyl]-amino}-thiazol-4-yl)-acetic acid] | 300 nM | – | – | – |
| CC(C)C(O)c1cc(C(=O)Nc2nccs2)n(Cc2ccc(S(C)(=O)=O)cc2)c1 (stereo not shown) [Example C6, 4-(1-Hydroxy-2-methyl-propyl)-1-(4-methanesulfonyl-benzyl)-1H-pyrrole-2-carboxylic acid thiazol-2-ylamide] | 600 nM | – | – | – |
| CC(C)C(O)c1cc(C(=O)Nc2ncc(Cl)s2)n(Cc2ccc(F)c(F)c2)c1 (stereo not shown) [Example C2, 1-(3,4-Difluoro-benzyl)-4-(1-hydroxy-2-methyl-propyl)-1H-pyrrole-2-carboxylic acid (5-chloro-thiazol-2-yl)-amide] | 630 nM | – | – | – |
| CCOC(=O)Cc1nc(NC(=O)c2cc(CC(C)C)cn2Cc2ccc(F)c(F)c2)sc1Cl [Example A116, (5-Chloro-2-{[1-(3,4-difluoro-benzyl)-4-isobutyl-1H-pyrrole-2-carbonyl]-amino}-thiazol-4-yl)-acetic acid ethyl ester] | – | 70% | 300 nM | – |
| Ro-28-1675 [reference compound] | – | – | – | S0.5 of glucokinase for glucose in presence of activator ([3]; drop from approximate 8 mM glucose, enzyme-based in vitro assay): ≤ 1.0 mM; hypoglycemia in animal efficacy models ([1]; Kamata et al 2004): cause hypoglycemia |
| CC(C)Cc1cc(C(=O)Nc2ncc(Cl)s2)n(Cc2ccc(F)c(F)c2)c1 [Example A40, 1-(3,4-Difluoro-benzyl)-4-isobutyl-1H-pyrrole-2-carboxylic acid (5-chloro-thiazol-2-yl)-amide] | – | 65% | 200 nM | – |
| CC(C)Cc1cc(C(=O)Nc2ncc(Cl)s2)n(Cc2ccc(F)c(C(F)(F)F)c2)c1 [Example A31, 1-(4-Fluoro-3-trifluoromethyl-benzyl)-4-isobutyl-1H-pyrrole-2-carboxylic acid (5-chloro-thiazol-2-yl)-amide] | – | 40% | 220 nM | – |
